Measured values from the Kinase Knowledgebase extract (Sharma et al. 2016).

Molecular target: ROCK2 (human) (UniProt O75116)
Test: Assessment of ROCK2 Kinase Activity using Luciferin-Luciferase Assay

Sequence of ROCK2 (human) (O75116 whole entry, looked up): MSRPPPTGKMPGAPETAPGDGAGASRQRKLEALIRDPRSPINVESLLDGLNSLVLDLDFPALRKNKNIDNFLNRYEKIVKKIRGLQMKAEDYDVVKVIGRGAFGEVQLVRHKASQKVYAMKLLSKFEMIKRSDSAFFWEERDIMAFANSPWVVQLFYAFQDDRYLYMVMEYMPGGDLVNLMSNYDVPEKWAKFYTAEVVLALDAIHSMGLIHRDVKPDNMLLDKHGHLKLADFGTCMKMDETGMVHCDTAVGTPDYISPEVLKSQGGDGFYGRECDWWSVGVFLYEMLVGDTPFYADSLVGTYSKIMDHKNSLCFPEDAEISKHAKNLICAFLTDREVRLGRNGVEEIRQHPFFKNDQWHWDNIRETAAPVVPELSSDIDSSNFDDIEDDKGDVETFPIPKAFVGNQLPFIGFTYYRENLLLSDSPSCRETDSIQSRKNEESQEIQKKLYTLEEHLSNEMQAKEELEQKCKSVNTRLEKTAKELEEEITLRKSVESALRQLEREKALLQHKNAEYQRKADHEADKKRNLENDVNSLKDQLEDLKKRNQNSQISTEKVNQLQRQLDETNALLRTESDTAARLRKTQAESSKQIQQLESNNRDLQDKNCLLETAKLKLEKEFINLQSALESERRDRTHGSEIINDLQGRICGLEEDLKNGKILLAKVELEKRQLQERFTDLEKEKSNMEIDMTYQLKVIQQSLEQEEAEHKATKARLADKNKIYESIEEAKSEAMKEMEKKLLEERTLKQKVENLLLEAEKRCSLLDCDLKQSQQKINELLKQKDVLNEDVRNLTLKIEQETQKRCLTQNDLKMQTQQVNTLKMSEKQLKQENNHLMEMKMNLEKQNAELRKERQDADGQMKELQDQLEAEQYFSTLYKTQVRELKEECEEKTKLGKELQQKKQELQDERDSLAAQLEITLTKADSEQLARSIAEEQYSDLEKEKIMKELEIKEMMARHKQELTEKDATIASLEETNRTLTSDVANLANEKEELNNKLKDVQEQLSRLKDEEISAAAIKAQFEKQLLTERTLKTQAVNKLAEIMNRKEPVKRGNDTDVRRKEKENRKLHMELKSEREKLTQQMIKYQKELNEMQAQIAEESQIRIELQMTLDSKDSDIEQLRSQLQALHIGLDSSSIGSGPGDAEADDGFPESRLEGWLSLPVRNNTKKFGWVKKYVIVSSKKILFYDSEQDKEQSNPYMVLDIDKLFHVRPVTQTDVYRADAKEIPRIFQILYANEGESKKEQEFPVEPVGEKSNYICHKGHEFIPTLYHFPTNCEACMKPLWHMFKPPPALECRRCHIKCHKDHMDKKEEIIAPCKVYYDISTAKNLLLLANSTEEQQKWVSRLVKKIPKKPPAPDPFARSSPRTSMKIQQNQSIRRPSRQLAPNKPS

Compared with `CN1CCc2nc(NC(=O)c3cccc(OCC(=O)Nc4ccc(C#N)cc4)c3)sc2C1`, `N#CCCN[C@H]1CCc2nc(NC(=O)c3cccc(OCC(=O)Nc4ccc(C#N)cc4)c3)sc2C1` is 4.5-fold lower in IC50: 23.4 nM for the first, 5.2 nM for the second.

`COc1ccc(C(=O)N2CCC[C@@H]2c2cccc(C(=O)Nc3nc4c(s3)CN(C)CC4)c2)cc1OC` and `COc1ccc(C(=O)N2CCC[C@@H]2c2cccc(C(=O)Nc3nc4c(s3)CN(C)CC4)c2)cc1C` are within 1.5-fold of each other in IC50: 30.7 nM for the first, 45.1 nM for the second.

Going from `COc1ccc(C(=O)N2CCC[C@@H]2c2cccc(C(=O)Nc3nc4c(s3)C[C@@H](N3CCOCC3)CC4)c2)cc1Cl` to `COc1ccc(C(=O)N2CCC[C@@H]2c2cccc(C(=O)Nc3nc4c(s3)CN(C)CC4)c2)cc1Cl`, the IC50 rises from 5.8 nM to 38 nM (6.6-fold). The first is the more potent here.

Compared with `N#Cc1ccc(NC(=O)COc2cccc(C(=O)Nc3nc4c(s3)C[C@@H](NCCC(F)(F)F)CC4)c2)cc1`, `CN1CCc2nc(NC(=O)c3cccc([C@H]4CCCN4C(=O)Nc4cccc(C(N)=O)c4)c3)sc2C1` is 19-fold higher in IC50: 5.1 nM for the first, 94.6 nM for the second. The first is the more potent here.

First: CN1CCc2nc(NC(=O)c3cccc([C@H]4CCCN4C(=O)c4csc(-c5cccnc5)n4)c3)sc2C1
Second: CN1CCc2nc(NC(=O)c3cccc([C@H]4CCCN4C(=O)c4csc(-c5ccncc5)n4)c3)sc2C1
The IC50 of the first is 1.5-fold lower: 4 nM for the first, 6.1 nM for the second.

`CN1CCc2nc(NC(=O)c3cccc([C@H]4CCCN4C(=O)c4cn5cc(C(N)=O)ccc5n4)c3)sc2C1` and `CN1CCc2nc(NC(=O)c3cccc([C@H]4CCCN4C(=O)c4ccc5cc(O)ccc5c4)c3)sc2C1` are within 1.5-fold of each other in IC50: 2.5 nM for the first, 2.1 nM for the second.

First: CN1CCc2nc(NC(=O)c3cccc([C@H]4CCCN4C(=O)c4nnn(-c5nonc5N)c4-c4ccccc4)c3)sc2C1
Second: Cc1nnnn1-c1ccc(C(=O)N2CCC[C@@H]2c2cccc(C(=O)Nc3nc4c(s3)CN(C)CC4)c2)cc1
The IC50 of the first is 15-fold lower: 6 nM for the first, 91.4 nM for the second. The first is the more potent here.

First: CN1CCc2nc(NC(=O)c3cccc([C@H]4CCCN4C(=O)c4cccc(-c5cccnc5)c4)c3)sc2C1
Second: CN1CCc2nc(NC(=O)c3cccc([C@H]4CCCN4C(=O)c4ccc(-c5cnco5)cc4)c3)sc2C1
The IC50 of the first is 31-fold higher: 80.4 nM for the first, 2.6 nM for the second.

`CN1CCc2nc(NC(=O)c3cccc([C@H]4CCCN4C(=O)c4ccc(-n5ccnc5)cc4)c3)sc2C1` was tested, and the IC50 was 14.5 nM.

Molecular target: ROCK2 (human) (UniProt O75116)
Test: Assessment of ROCK2 Kinase Activity using IMAP Assay

First: N#Cc1cccc2c1CCN2C(=O)N1CCC[C@@H]1c1cccc(C(=O)Nc2nc3c(s2)C[C@@H](N2CCOCC2)CC3)c1
Second: N#Cc1cccc(NC(=O)N2CCC[C@@H]2c2cccc(C(=O)Nc3nc4c(s3)C[C@@H](N3CCOCC3)CC4)c2)c1
The IC50 of the first is 4.8-fold higher: 2.9 nM for the first, 0.6 nM for the second. The second is the more potent here.

Going from `COc1ccc(C(=O)N2CCC[C@@H]2c2cccc(C(=O)Nc3nc4c(s3)C[C@@H](N3CCOCC3)CC4)c2)cc1Cl` to `CN1CCc2nc(NC(=O)c3cccc([C@H]4CCCN4C(=O)c4ccc5cc(O)ccc5c4)c3)sc2C1`, the IC50 falls from 7.9 nM to 4 nM (2-fold).

`N#Cc1ccc(NC(=O)COc2cccc(C(=O)Nc3nc4c(s3)C[C@@H](NCCC(F)(F)F)CC4)c2)cc1` and `N#CCCN[C@H]1CCc2nc(NC(=O)c3cccc(OCC(=O)Nc4ccc(C#N)cc4)c3)sc2C1` are within 1.5-fold of each other in IC50: 32 nM for the first, 27 nM for the second.

`CN1CCc2nc(NC(=O)c3cccc([C@H]4CCCN4C(=O)c4csc(-c5cccnc5)n4)c3)sc2C1` and `CN1CCc2nc(NC(=O)c3cccc([C@H]4CCCN4C(=O)c4csc(-c5ccncc5)n4)c3)sc2C1` are within 1.5-fold of each other in IC50: 13 nM for the first, 16 nM for the second.

Compared with `CN1CCc2nc(NC(=O)c3cccc([C@H]4CCCN4C(=O)c4cn5cc(C(N)=O)ccc5n4)c3)sc2C1`, `CN1CCc2nc(NC(=O)c3cccc([C@H]4CCCN4C(=O)c4cc(-c5ccncc5)[nH]n4)c3)sc2C1` is 1.8-fold lower in IC50: 7.4 nM for the first, 4.1 nM for the second.

Going from `CN1CCc2nc(NC(=O)c3cccc([C@H]4CCCN4C(=O)c4nnn(-c5nonc5N)c4-c4ccccc4)c3)sc2C1` to `CN1CCc2nc(NC(=O)c3cccc([C@H]4CCCN4C(=O)c4ccc(-c5cnco5)cc4)c3)sc2C1`, the IC50 falls from 44 nM to 11.2 nM (3.9-fold). The second is the more potent here.
